Test results published in PubChem BioAssay AID1963430 (Molecular Pharmacology Branch, DTP, NCI, 2024).
Each block holds one molecule with its values, some of them ahead of it.

System: 521955-158-R2-J5-PDC complex spheroid growth, % test/control
Experiment: Anticancer human tumor 521955-158-R2-J5-PDC patient-derived pancreatic carcinoma cell line growth inhibition [Asc]
Settings: for IC50: curve of first compound; for viability, T/C: stronger effect = lower value
How it was run: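 Tumor cells were grown as complex spheroids with human endothelial cells (HUVEC) and human mesenchymal stem cells as stroma. Agents were tested alone and in combination, in half-log steps down from the clinical Cmax, or from 10 microM where Cmax was unknown.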

[1] = second compound 0.01 µM, first compound 0.00316 µM
[2] = second compound 0.01 µM, first compound 0.01 µM
[3] = second compound 0.01 µM, first compound 0.0316 µM
[4] = second compound 0.01 µM, first compound 0.1 µM
[5] = second compound 0.01 µM, first compound 0.316 µM
[6] = second compound 0.01 µM, first compound 1 µM
[7] = second compound 0.0316 µM, first compound 0.00316 µM
[8] = second compound 0.0316 µM, first compound 0.01 µM
[9] = second compound 0.0316 µM, first compound 0.0316 µM
[10] = second compound 0.0316 µM, first compound 0.1 µM
[11] = second compound 0.0316 µM, first compound 0.316 µM
[12] = second compound 0.0316 µM, first compound 1 µM
[13] = second compound 0.1 µM, first compound 0.00316 µM
[14] = second compound 0.1 µM, first compound 0.01 µM
[15] = second compound 0.1 µM, first compound 0.0316 µM
[16] = second compound 0.1 µM, first compound 0.1 µM
[17] = second compound 0.1 µM, first compound 0.316 µM
[18] = second compound 0.1 µM, first compound 1 µM
[19] = second compound 0.316 µM, first compound 0.00316 µM
[20] = second compound 0.316 µM, first compound 0.01 µM
[21] = second compound 0.316 µM, first compound 0.0316 µM
[22] = second compound 0.316 µM, first compound 0.1 µM
[23] = second compound 0.316 µM, first compound 0.316 µM
[24] = second compound 0.316 µM, first compound 1 µM
[25] = second compound 1 µM, first compound 0.00316 µM
[26] = second compound 1 µM, first compound 0.01 µM
[27] = second compound 1 µM, first compound 0.0316 µM
[28] = second compound 1 µM, first compound 0.1 µM
[29] = second compound 1 µM, first compound 0.316 µM
[30] = second compound 1 µM, first compound 1 µM
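Also: spheroids exposed to agents for 7 days before readout.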
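For viability, T/C in this document: 100% = DMSO vehicle control viability.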

IC50 (second compound 0.01 µM): > 1000 nM | IC50 (second compound 0.0316 µM): > 1000 nM | IC50 (second compound 0.1 µM): > 1000 nM | IC50 (second compound 0.316 µM): > 1000 nM | IC50 (second compound 1 µM): > 1000 nM
SMILES: CCN1CCN(Cc2ccc(Nc3ncc(F)c(-c4cc(F)c5nc(C)n(C(C)C)c5c4)n3)nc2)CC1 + CNC(C)C(=O)NC1CN(S(=O)(=O)c2cccc(S(=O)(=O)N3CCC4CCC(C(=O)NC(c5ccccc5)c5ccccc5)N4C(=O)C(NC(=O)C(C)NC)C3)c2)CCC2CCC(C(=O)NC(c3ccccc3)c3ccccc3)N2C1=O
viability, T/C [1]: 89.3% | viability, T/C [2]: 85.6% | viability, T/C [3]: 71.2% | viability, T/C [4]: 61.6% | viability, T/C [5]: 73.2% | viability, T/C [6]: 94.8% | viability, T/C [7]: 87.8% | viability, T/C [8]: 106% | viability, T/C [9]: 82.5% | viability, T/C [10]: 84.1% | viability, T/C [11]: 83.6% | viability, T/C [12]: 102% | viability, T/C [13]: 97.6% | viability, T/C [14]: 91.7% | viability, T/C [15]: 76.6% | viability, T/C [16]: 76.9% | viability, T/C [17]: 86.7% | viability, T/C [18]: 96.8% | viability, T/C [19]: 76.3% | viability, T/C [20]: 76.8% | viability, T/C [21]: 83.5% | viability, T/C [22]: 66.6% | viability, T/C [23]: 69.7% | viability, T/C [24]: 105% | viability, T/C [25]: 95.5% | viability, T/C [26]: 85.1% | viability, T/C [27]: 64.8% | viability, T/C [28]: 57.7% | viability, T/C [29]: 69.9% | viability, T/C [30]: 103%

IC50 (second compound 0.01 µM): 8.04 nM | IC50 (second compound 0.0316 µM): 21 nM | IC50 (second compound 0.1 µM): 9.32 nM | IC50 (second compound 0.316 µM): 14.9 nM | IC50 (second compound 1 µM): 21.9 nM
SMILES: COc1c(OCCCN2CCOCC2)ccc2c3n(c(=NC(=O)c4cnc(N)nc4)nc12)CCN3 + CNC(C)C(=O)NC1CN(S(=O)(=O)c2cccc(S(=O)(=O)N3CCC4CCC(C(=O)NC(c5ccccc5)c5ccccc5)N4C(=O)C(NC(=O)C(C)NC)C3)c2)CCC2CCC(C(=O)NC(c3ccccc3)c3ccccc3)N2C1=O
viability, T/C [1]: 63.6% | viability, T/C [2]: 42.8% | viability, T/C [3]: 38.4% | viability, T/C [4]: 25.5% | viability, T/C [5]: 17.9% | viability, T/C [6]: 11.8% | viability, T/C [7]: 73.1% | viability, T/C [8]: 71.1% | viability, T/C [9]: 35% | viability, T/C [10]: 30% | viability, T/C [11]: 18% | viability, T/C [12]: 11.5% | viability, T/C [13]: 71.3% | viability, T/C [14]: 43.6% | viability, T/C [15]: 36.1% | viability, T/C [16]: 27.9% | viability, T/C [17]: 17.1% | viability, T/C [18]: 11.6% | viability, T/C [19]: 91% | viability, T/C [20]: 52.8% | viability, T/C [21]: 35.6% | viability, T/C [22]: 34.8% | viability, T/C [23]: 16.5% | viability, T/C [24]: 13.1% | viability, T/C [25]: 83.3% | viability, T/C [26]: 64.5% | viability, T/C [27]: 42.5% | viability, T/C [28]: 28.6% | viability, T/C [29]: 17.6% | viability, T/C [30]: 12.9%

IC50 (second compound 0.01 µM): 5.34 nM | IC50 (second compound 0.0316 µM): 8.62 nM | IC50 (second compound 0.1 µM): 44.6 nM | IC50 (second compound 0.316 µM): 23.4 nM | IC50 (second compound 1 µM): 47.4 nM
SMILES: NC(=O)C(=Cn1cnc(-c2cc(C(F)(F)F)cc(C(F)(F)F)c2)n1)c1cncnc1 + CNC(C)C(=O)NC1CN(S(=O)(=O)c2cccc(S(=O)(=O)N3CCC4CCC(C(=O)NC(c5ccccc5)c5ccccc5)N4C(=O)C(NC(=O)C(C)NC)C3)c2)CCC2CCC(C(=O)NC(c3ccccc3)c3ccccc3)N2C1=O
viability, T/C (second compound 0.01 µM, first compound 0.000949 µM): 96.9% | viability, T/C (second compound 0.01 µM, first compound 0.003 µM): 60.7% | viability, T/C (second compound 0.01 µM, first compound 0.00949 µM): 39% | viability, T/C (second compound 0.01 µM, first compound 0.03 µM): 43% | viability, T/C (second compound 0.01 µM, first compound 0.0949 µM): 37.4% | viability, T/C (second compound 0.01 µM, first compound 0.3 µM): 34.8% | viability, T/C (second compound 0.0316 µM, first compound 0.000949 µM): 84.4% | viability, T/C (second compound 0.0316 µM, first compound 0.003 µM): 91.9% | viability, T/C (second compound 0.0316 µM, first compound 0.00949 µM): 46.5% | viability, T/C (second compound 0.0316 µM, first compound 0.03 µM): 36.5% | viability, T/C (second compound 0.0316 µM, first compound 0.0949 µM): 34.8% | viability, T/C (second compound 0.0316 µM, first compound 0.3 µM): 27.4% | viability, T/C (second compound 0.1 µM, first compound 0.000949 µM): 97.8% | viability, T/C (second compound 0.1 µM, first compound 0.003 µM): 77.9% | viability, T/C (second compound 0.1 µM, first compound 0.00949 µM): 72.9% | viability, T/C (second compound 0.1 µM, first compound 0.03 µM): 52.6% | viability, T/C (second compound 0.1 µM, first compound 0.0949 µM): 42.6% | viability, T/C (second compound 0.1 µM, first compound 0.3 µM): 27.1% | viability, T/C (second compound 0.316 µM, first compound 0.000949 µM): 86.2% | viability, T/C (second compound 0.316 µM, first compound 0.003 µM): 76% | viability, T/C (second compound 0.316 µM, first compound 0.00949 µM): 39.8% | viability, T/C (second compound 0.316 µM, first compound 0.03 µM): 61.5% | viability, T/C (second compound 0.316 µM, first compound 0.0949 µM): 40.7% | viability, T/C (second compound 0.316 µM, first compound 0.3 µM): 25.9% | viability, T/C (second compound 1 µM, first compound 0.000949 µM): 108% | viability, T/C (second compound 1 µM, first compound 0.003 µM): 89.7% | viability, T/C (second compound 1 µM, first compound 0.00949 µM): 77.2% | viability, T/C (second compound 1 µM, first compound 0.03 µM): 58.6% | viability, T/C (second compound 1 µM, first compound 0.0949 µM): 36.1% | viability, T/C (second compound 1 µM, first compound 0.3 µM): 32.3%

IC50 (second compound 0.01 µM): > 100 nM | IC50 (second compound 0.0316 µM): > 100 nM | IC50 (second compound 0.1 µM): > 100 nM | IC50 (second compound 0.316 µM): > 100 nM | IC50 (second compound 1 µM): > 100 nM
SMILES: NC1CCC(NC2CC2c2ccccc2)CC1 (stereo not given) + CNC(C)C(=O)NC1CN(S(=O)(=O)c2cccc(S(=O)(=O)N3CCC4CCC(C(=O)NC(c5ccccc5)c5ccccc5)N4C(=O)C(NC(=O)C(C)NC)C3)c2)CCC2CCC(C(=O)NC(c3ccccc3)c3ccccc3)N2C1=O
viability, T/C (second compound 0.01 µM, first compound 0.000316 µM): 79.9% | viability, T/C (second compound 0.01 µM, first compound 0.001 µM): 70.7% | viability, T/C [1]: 82.2% | viability, T/C [2]: 80.9% | viability, T/C [3]: 71.6% | viability, T/C [4]: 69.1% | viability, T/C (second compound 0.0316 µM, first compound 0.000316 µM): 88.5% | viability, T/C (second compound 0.0316 µM, first compound 0.001 µM): 81.4% | viability, T/C [7]: 61% | viability, T/C [8]: 79% | viability, T/C [9]: 72% | viability, T/C [10]: 64.8% | viability, T/C (second compound 0.1 µM, first compound 0.000316 µM): 66.5% | viability, T/C (second compound 0.1 µM, first compound 0.001 µM): 83.7% | viability, T/C [13]: 80.7% | viability, T/C [14]: 74.2% | viability, T/C [15]: 85.8% | viability, T/C [16]: 58.8% | viability, T/C (second compound 0.316 µM, first compound 0.000316 µM): 73.8% | viability, T/C (second compound 0.316 µM, first compound 0.001 µM): 93.5% | viability, T/C [19]: 83% | viability, T/C [20]: 49% | viability, T/C [21]: 68.7% | viability, T/C [22]: 72% | viability, T/C (second compound 1 µM, first compound 0.000316 µM): 82% | viability, T/C (second compound 1 µM, first compound 0.001 µM): 70.5% | viability, T/C [25]: 87.3% | viability, T/C [26]: 90% | viability, T/C [27]: 56.6% | viability, T/C [28]: 66.5%
